# According to patent publication US11311543B2, “Compositions and methods for inhibiting PTPN22” (YALE UNIVERSITY, priority 2016, dated 2022):
# Test system: ERK
# Assay: Phosphorylation kinetics of ERK in RAMOS cells after BCR triggering (immunoblot)
# Assay type: cell-based, human
# Details: LTV-1 5 μg/mL
# Protocol: FIG. 40A depicts the phosphorylation of SHIP1, Lyn and ERK1/2 in total cell lysates of Ramos B cells treated or not with the PTPN22 inhibitor LTV-1 (5 μg/mL) for the indicated times. The cells were subjected to immunoblot analysis of P-LYN P-SHIP1, P-ERK1/2, and β-ACTIN. FIG. 40B depicts flow cytometry analysis of calcium flux of Ramos B cells treated or not with the PTPN22 inhibitor LTV-1 (5 μg/mL) for the indicated times followed by stimulation with anti-IgM F(ab′)2 at the indicated concentrations. FIG. 40C depicts flow cytometry analysis of calcium flux of splenocyte cells treated or not with LTV-1 (0.75 mg) twice daily for 7 days and stimulated with anti-IgM F(ab′)2 (25 μg/mL). FIG. 40D depicts flow cytometry analysis of calcium flux of splenocyte expressing PTPN22 shRNA and stimulated with anti-IgM F(ab′)2 (25 μg/mL).
# However, downstream ERK phosphorylation was not affected by PTPN22 inhibition (FIG. 40A). Since PTPN22 inhibition enhanced TCR signaling in Jurkat cell line, it was investigated if PTPN22 blockade may also increase BCR signaling and calcium flux induced by BCR triggering was measured in RAMOS cells in the presence or not of LTV-1. Calcium flux was increased by PTPN22 inhibition, especially at lower concentration of BCR triggering agent (FIG. 40B). […]
smiles,measurement,value
Cc1ccccc1N1C(=O)/C(=C/c2ccc(OCc3cccc(C(=O)O)c3)cc2)C(=O)NC1=S [LTV-1],downstream ERK phosphorylation,not affected
